Like-named read-outs stand apart in the source and are kept apart here.
Columns and labels:
hTLR7 = biological target: T1, hTLR7 (Homo sapiens, UniProt Q9NYK1); assay: agonistic activity on hTLR7, HEK-Blue hTLR cells, SEAP reporter (QUANTI-Blue); format: cell-based
T1 construct: expressed in transfected cells; host or cells: HEK-Blue hTLR cells
T1 sequence (Q9NYK1 27-1049): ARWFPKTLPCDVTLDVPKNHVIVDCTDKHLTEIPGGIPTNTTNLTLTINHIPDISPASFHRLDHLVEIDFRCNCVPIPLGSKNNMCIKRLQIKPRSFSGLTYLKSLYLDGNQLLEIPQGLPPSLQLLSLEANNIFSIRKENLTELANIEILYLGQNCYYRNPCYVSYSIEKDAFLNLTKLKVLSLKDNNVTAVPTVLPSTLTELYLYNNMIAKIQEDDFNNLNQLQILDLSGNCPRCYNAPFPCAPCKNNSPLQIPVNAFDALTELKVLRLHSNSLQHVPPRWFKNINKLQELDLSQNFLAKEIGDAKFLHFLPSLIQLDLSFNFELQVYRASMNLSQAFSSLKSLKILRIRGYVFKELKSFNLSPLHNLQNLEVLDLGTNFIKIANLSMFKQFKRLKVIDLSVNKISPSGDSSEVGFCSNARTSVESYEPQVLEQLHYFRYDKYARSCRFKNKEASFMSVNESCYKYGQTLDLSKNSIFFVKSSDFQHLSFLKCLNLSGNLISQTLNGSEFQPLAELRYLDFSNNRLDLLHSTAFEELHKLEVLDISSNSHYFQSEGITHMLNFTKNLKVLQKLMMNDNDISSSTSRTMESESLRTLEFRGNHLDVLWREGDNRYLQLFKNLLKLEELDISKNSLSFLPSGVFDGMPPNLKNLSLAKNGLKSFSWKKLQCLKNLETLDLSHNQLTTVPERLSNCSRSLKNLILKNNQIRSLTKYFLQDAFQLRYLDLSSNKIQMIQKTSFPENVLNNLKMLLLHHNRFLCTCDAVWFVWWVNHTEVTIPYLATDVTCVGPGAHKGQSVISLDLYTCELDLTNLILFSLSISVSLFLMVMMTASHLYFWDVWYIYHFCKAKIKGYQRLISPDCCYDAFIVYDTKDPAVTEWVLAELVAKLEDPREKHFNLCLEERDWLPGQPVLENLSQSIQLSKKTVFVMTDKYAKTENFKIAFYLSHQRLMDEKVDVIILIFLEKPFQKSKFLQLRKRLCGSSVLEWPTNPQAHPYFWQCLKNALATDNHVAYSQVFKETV
Description: (§1) Experiments on the agonistic activity of TLR7 and TLR8 by the compounds in vitro
(§2) The compound was diluted with 1:3 series with DMSO for 9 concentration points, duplicated wells, and added to 96-well plate with Echo.
(§3) The HEK-Blue™ hTLR cells were suspended in the culture medium and then seeded into a 96-well plate containing the compound at a density of 50,000 cells/well. Cells were cultured at 5% CO2 and 37° C. for 1 day. The final concentration of DMSO in the cell culture medium was 0.5%.
(§4) 20 uL cell culture supernatant was taken, according to the QUANTI-Blue instructions, the reporter gene SEAP in the supernatant was detected, and the OD650 signal value was read with a microplate reader to calculate the agonist activity of the compound on the hTLR7 and hTLR8.
(§5) The EC50 and CC50 values of the compound were calculated by GraphPad Prism software, and the fitting curve was plotted.

hTLR8 = biological target: T2, hTLR8 (Homo sapiens, UniProt Q9NR97); assay: agonistic activity on hTLR8, HEK-Blue hTLR cells, SEAP reporter (QUANTI-Blue); format: cell-based; conditions: for EC50: SEAP reporter, OD650, cultured 1 day; for TLR 8 selectivity TLR 7/TLR 8: ratio of TLR 7 EC50 to TLR 8 EC50
T2 construct: expressed in transfected cells; host or cells: HEK-Blue hTLR cells
T2 sequence (Q9NR97 27-1041): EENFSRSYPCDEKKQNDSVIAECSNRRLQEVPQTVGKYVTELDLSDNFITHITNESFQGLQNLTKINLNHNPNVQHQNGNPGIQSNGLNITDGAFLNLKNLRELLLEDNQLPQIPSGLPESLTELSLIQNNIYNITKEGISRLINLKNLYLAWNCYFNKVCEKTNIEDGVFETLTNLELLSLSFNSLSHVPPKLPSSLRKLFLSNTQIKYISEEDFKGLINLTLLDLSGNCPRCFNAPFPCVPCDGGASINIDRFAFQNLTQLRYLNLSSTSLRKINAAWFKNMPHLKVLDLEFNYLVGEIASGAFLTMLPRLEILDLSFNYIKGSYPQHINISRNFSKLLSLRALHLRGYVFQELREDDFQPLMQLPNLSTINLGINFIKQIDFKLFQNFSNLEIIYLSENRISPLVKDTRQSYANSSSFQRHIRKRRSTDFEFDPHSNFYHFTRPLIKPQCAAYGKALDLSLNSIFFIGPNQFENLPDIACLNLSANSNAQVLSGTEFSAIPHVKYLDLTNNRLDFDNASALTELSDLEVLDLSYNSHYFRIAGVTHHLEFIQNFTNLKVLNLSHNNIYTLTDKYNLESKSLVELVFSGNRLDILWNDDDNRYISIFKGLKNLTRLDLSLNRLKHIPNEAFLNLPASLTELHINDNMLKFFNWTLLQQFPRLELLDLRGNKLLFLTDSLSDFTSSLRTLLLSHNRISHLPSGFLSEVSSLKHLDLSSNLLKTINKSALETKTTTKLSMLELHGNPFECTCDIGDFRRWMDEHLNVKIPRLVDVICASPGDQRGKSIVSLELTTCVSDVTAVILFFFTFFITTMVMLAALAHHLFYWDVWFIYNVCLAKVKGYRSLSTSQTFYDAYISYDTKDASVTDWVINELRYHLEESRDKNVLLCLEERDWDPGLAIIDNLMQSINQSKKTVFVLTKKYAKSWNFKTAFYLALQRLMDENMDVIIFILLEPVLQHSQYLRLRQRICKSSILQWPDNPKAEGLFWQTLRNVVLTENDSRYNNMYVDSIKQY
Description: as §1, §2, §3, §4, §5

[1] = cytotoxicity, cell viability by CellTiter-Glo; format: cell-based, human; conditions: human, HEK-Blue hTLR cells, cultured 1 day
Description: as §2, §3
According to the CellTiter-Glo instructions, the cell viability was measured, and the Luminescence signal value was read by the microplate reader, which was used to calculate the cytotoxicity of the compound.
as §5

[2] = HEK-Blue hTLR cells, SEAP reporter, OD650, cultured 1 day, read-out: TLR 7 EC50
[3] = HEK-Blue hTLR cells, read-out: TLR 8 EC50
[4] = TLR 8 EC50, HEK-Blue hTLR cells

Row | TLR 7 selectivity TLR 8/TLR 7 (hTLR7; ratio of TLR 8 EC50 to TLR 7 EC50) | SMILES | EC50 (hTLR7; [2]) [µM] | EC50 (hTLR8; [3]) [nM] | CC50 at 1 day [1] [µM] | EC50 (hTLR7) [µM] | EC50 (hTLR8; [4]) [nM] | TLR 8 selectivity TLR 7/TLR 8 (hTLR8)
1 | 2.8 | CCOCc1nc2c(N)nc3ccccc3c2n1C[C@@H](C)O (single isomer, unassigned) [Example 1B] | 1.27 | 3600 | > 30 | – | – | –
2 | – | CCOCc1nc2c(N)nc3ccccc3c2n1C[C@@H](C)O[P@@](=O)(N[C@@H](C)C(=O)OC(C)C)Oc1ccccc1 (single isomer, unassigned) [Example 2A] | – | – | > 30 | 2.8 | 881 | 3.2
3 | – | CCOCc1nc2c(N)nc3ccccc3c2n1C[C@H](C)O[P@@](=O)(N[C@@H](C)C(=O)OC(C)C)Oc1ccccc1 (single isomer, unassigned) [Example 2B] | – | – | > 30 | 3.03 | 77 | 39.4
4 | – | CCOCc1nc2c(N)nc3ccccc3c2n1C[C@@H](C)O[P@](=O)(N[C@@H](C)C(=O)OC(C)C)Oc1ccccc1 (single isomer, unassigned) [Example 3A] | > 30 | 9080 | > 30 | – | – | >3.3
5 | – | CCOCc1nc2c(N)nc3ccccc3c2n1C[C@H](C)O[P@](=O)(N[C@@H](C)C(=O)OC(C)C)Oc1ccccc1 (single isomer, unassigned) [Example 3B] | 3.61 | 1860 | > 30 | – | – | 1.9
6 | – | CCOCc1nc2c(N)nc3ccccc3c2n1C[C@@H](C)O[P@@](=O)(N[C@@H](C)C(=O)OC(C)C)Oc1cccc2ccccc12 (single isomer, unassigned) [Example 5A] | > 10 | 9.2 | 17.9 | – | – | >1086
7 | – | CCOCc1nc2c(N)nc3ccccc3c2n1C[C@@H](C)O[P@@](=O)(N[C@@H](C)C(=O)OC(C)C)Oc1ccc2ccccc2c1 (single isomer, unassigned) [Example 6A] | 7.29 | 5.6 | > 30 | – | – | 1301
8 | – | CCOCc1nc2c(N)nc3ccccc3c2n1C[C@@H](C)O[P@@](=O)(N[C@@H](C)C(=O)OC(C)C)Oc1ccc(C)cc1 (single isomer, unassigned) [Example 9A] | 9.5 | 7.9 | > 30 | – | – | 1202
9 | – | CCOCc1nc2c(N)nc3ccccc3c2n1C[C@@H](C)O[P@](=O)(N[C@@H](C)C(=O)OC(C)C)Oc1ccccc1Cl (single isomer, unassigned) [Example 10B] | – | 13 | > 30 | – | – | –
10 | – | CCOCc1nc2c(N)nc3ccccc3c2n1C[C@@H](C)O[P@@](=O)(N[C@@H](C)C(=O)OC(C)C)Oc1cccc(Cl)c1 (single isomer, unassigned) [Example 11A] | 5.83 | 9.1 | > 30 | – | – | 640
11 | – | CCOCc1nc2c(N)nc3ccccc3c2n1C[C@@H](C)O[P@](=O)(N[C@@H](C)C(=O)OC(C)C)Oc1cccc(Cl)c1 (single isomer, unassigned) [Example 11B] | – | 71 | > 30 | – | – | –
12 | – | CCOCc1nc2c(N)nc3ccccc3c2n1C[C@@H](C)O[P@@](=O)(N[C@@H](C)C(=O)OC(C)C)Oc1ccc(Cl)cc1 (single isomer, unassigned) [Example 12A] | 6.07 | 3.5 | > 30 | – | – | 1735
13 | – | CCOCc1nc2c(N)nc3ccccc3c2n1C[C@@H](C)O[P@](=O)(N[C@@H](C)C(=O)OC(C)C)Oc1ccc(Cl)cc1 (single isomer, unassigned) [Example 12B] | – | 49 | > 30 | – | – | –
14 | – | CCOCc1nc2c(N)nc3ccccc3c2n1C[C@@H](C)O[P@@](=O)(N[C@H](C)C(=O)OC(C)C)Oc1ccccc1 (single isomer, unassigned) [Example 13A] | – | 764 | > 30 | – | – | –
15 | – | CCOCc1nc2c(N)nc3ccccc3c2n1C[C@@H](C)O[P@](=O)(N[C@H](C)C(=O)OC(C)C)Oc1ccccc1 (single isomer, unassigned) [Example 13B] | – | 1850 | > 30 | – | – | –
16 | – | CCOCc1nc2c(N)nc3ccccc3c2n1C[C@@H](C)O[P@](=O)(N[C@@H](C)C(=O)OC(C)(C)C)Oc1ccccc1 (single isomer, unassigned) [Example 14B] | – | 1290 | > 30 | – | – | –
17 | – | CCOCc1nc2c(N)nc3ccccc3c2n1C[C@@H](C)O[P@@](=O)(N[C@@H](C)C(=O)OC)Oc1ccccc1 (single isomer, unassigned) [Example 15A] | – | 68 | > 30 | – | – | –
18 | – | CCOCc1nc2c(N)nc3ccccc3c2n1C[C@@H](C)O[P@](=O)(N[C@@H](C)C(=O)OC)Oc1ccccc1 (single isomer, unassigned) [Example 15B] | – | 48 | > 30 | – | – | –
19 | – | CCOCc1nc2c(N)nc3ccccc3c2n1C[C@@H](C)O[P@](=O)(N[C@@H](C)C(=O)OCc1ccccc1)Oc1ccccc1 (single isomer, unassigned) [Example 16B] | – | 11.5 | > 30 | – | – | –
20 | – | CCOCc1nc2c(N)nc3ccccc3c2n1C[C@@H](C)O[P@](=O)(N[C@@H](C)C(=O)OC(C)(C)C)Oc1ccc(C)cc1 (single isomer, unassigned) [Example 17B] | – | 2920 | > 30 | – | – | –
21 | – | CCOCc1nc2c(N)nc3ccccc3c2n1C[C@@H](C)O[P@](=O)(N[C@@H](C)C(=O)OC(C)(C)C)Oc1ccc(OC)cc1 (single isomer, unassigned) [Example 18B] | – | 2450 | > 30 | – | – | –
22 | – | CCOCc1nc2c(N)nc3ccccc3c2n1C[C@@H](C)O[P@](=O)(N[C@@H](C)C(=O)OC(C)(C)C)Oc1ccc(Cl)cc1 (single isomer, unassigned) [Example 19B] | – | 2540 | > 30 | – | – | –

From patent publication US20230008368A1, “IMIDAZOQUINOLINE SUBSTITUTED PHOSPHORIC ESTER AGONIST, AND PREPARATION THEREFOR AND APPLICATION THEREOF” (SUZHOU ZELGEN BIOPHARMACEUTICALS CO., LTD., priority 2019, published 2023)
